Test results as given in patent US20240374628A1 (Whispergenics. Inc., priority 2021, published 2024).

Legend:
BIRC5 expression = assay: Cardiac glycosides that inhibit BIRC5 expression in colorectal cancer; format: cell-based
[1] = test system: human colon cancer cell lines (CCD-18Co, Caco2, HT29); assay: CellTiter-Glo cell viability, three human colon cancer cell lines; format: cell-based; conditions: dose-response curves, 48 h, FIGS. 1-3
Description: Cell lines: Human colon cancer cell lines CCD-18Co and Caco2 (American Type Culture Collection [ATCC], Bethesda, MD) were maintained in Eagle's Minimum Essential Medium (Thermo Fisher Scientific, MA) supplemented with 100,000 U/L of penicillin, 100,000 μg/L of streptomycin, and 20% fetal bovine serum (FBS). HT29 (American Type Culture Collection [ATCC], Bethesda, MD) was maintained in McCoy's 5a Medium Modified (Thermo Fisher Scientific, MA) supplemented with 100,000 U/L of penicillin, 100,000 μg/L of streptomycin, and 10% fetal bovine serum (FBS). […] All cells were maintained in Eagles Medium as described above.
(§1) The cells were subjected to cell viability assays using The CellTiter-Glo luminescent cell viability kit (Promega, catalog number: G7570). luminescence was measured using microplate luminometer (luminoskan™ ascent, Thermo-Fisher Scientific, MA). Background luminescence was measured in medium without cells and subtracted from experimental values.

HT29 = assay: CellTiter-Glo cell viability, HT29; format: cell-based, human; conditions: 48 h, dose curve 12.5 nM-800 nM, FIG. 1
Description: (§2) Cell lines: Human colon cancer cell lines CCD-18Co and Caco2 (American Type Culture Collection [ATCC], Bethesda, MD) were maintained in Eagle's Minimum Essential Medium (Thermo Fisher Scientific, MA) supplemented with 100,000 U/L of penicillin, 100,000 μg/L of streptomycin, and 20% fetal bovine serum (FBS). HT29 (American Type Culture Collection [ATCC], Bethesda, MD) was maintained in McCoy's 5a Medium Modified (Thermo Fisher Scientific, MA) supplemented with 100,000 U/L of penicillin, 100,000 μg/L of streptomycin, and 10% fetal bovine serum (FBS). The following cells were also tested: MDA 231 Breast Cancer Cells, U87 Glioblastoma Cells, U251 Glioblastoma Cells and Dul45 Prostate Cancer Cells. All cells were maintained in Eagles Medium as described above.
as §1

Caco2 = assay: CellTiter-Glo cell viability, Caco2; format: cell-based, human; conditions: 48 h, dose curve 625 μM-40000 μM, FIG. 3
Description: as §2, §1

| Compound | inhibition of BIRC5 expression (BIRC5 expression) | cell viability, single drug alone [1] | sensitivity of cell viability (HT29) | sensitivity of cell viability (Caco2) |
| --- | --- | --- | --- | --- |
| C[C@]12CC[C@H](O)C[C@H]1CC[C@@H]1[C@@H]2CC[C@]2(C)[C@@H](C3=CC(=O)OC3)CC[C@]12O [Digitoxigenin] | inhibit BIRC5 expression |  |  |  |
| C[C@H]1O[C@@H](O[C@H]2[C@@H](O)C[C@H](O[C@H]3[C@@H](O)C[C@H](O[C@H]4CC[C@@]5(C)[C@H](CC[C@@H]6[C@@H]5C[C@@H](O)[C@]5(C)[C@@H](C7=CC(=O)OC7)CC[C@]65O)C4)O[C@@H]3C)O[C@@H]2C)C[C@H](O)[C@@H]1O [Digoxin] | inhibit BIRC5 expression | reduced cell viability to varying degrees | very sensitive |  |
| CC(=O)O[C@H]1C[C@H](O[C@H]2[C@@H](O)C[C@H](O[C@H]3[C@@H](O)C[C@H](O[C@H]4CC[C@@]5(C)[C@H](CC[C@@H]6[C@@H]5C[C@@H](O)[C@]5(C)[C@@H](C7=CC(=O)OC7)CC[C@]65O)C4)O[C@@H]3C)O[C@@H]2C)O[C@H](C)[C@H]1O[C@@H]1O[C@H](CO)[C@@H](O)[C@H](O)[C@H]1O [Lanatoside C] | inhibit BIRC5 expression |  |  |  |
| CN(C)C(=N)N=C(N)N [Metformin] |  | reduced cell viability to varying degrees |  | sensitive |
| C[C@@H]1O[C@@H](O[C@H]2C[C@@H](O)[C@]3(CO)[C@H]4[C@H](O)C[C@]5(C)[C@@H](C6=CC(=O)OC6)CC[C@]5(O)[C@@H]4CC[C@]3(O)C2)[C@H](O)[C@H](O)[C@H]1O [Ouabain] | inhibit BIRC5 expression |  |  |  |
| C[C@]12CC[C@H](O)C[C@H]1CC[C@@H]1[C@@H]2CC[C@]2(C)[C@@H](c3ccc(=O)oc3)CC[C@]12O [bufalin] | inhibit BIRC5 expression |  |  |  |
